Data set [1] in a line: The drug is tested on Z-012 corresponding to metagenome with ENA study accession number: PRJEB37062 and ENA sample accession number: ERS12561812 for biotransformation under anaerobic condition. The drug concentrations were measured over 9 timepoints collected between 0 and 24 hours of incubation by liquid-chromatography-coupled mass spectrometry (LC–MS). The following applies: 2 µM.

For data set [2] the following is noted: human gut metagenome, 24 h, 2 µM.
The nature of data set [3]: The drug is tested on Z-027 corresponding to metagenome with ENA study accession number: PRJEB37062 and ENA sample accession number: ERS12561826 for biotransformation under anaerobic condition. The drug concentrations were measured over 9 timepoints collected between 0 and 24 hours of incubation by liquid-chromatography-coupled mass spectrometry (LC–MS). The note with it: 2 µM.

The conditions of data set [4]: human gut metagenome, 24 h, 2 µM. The source holds these as a separate data set.
The conditions of data set [5]: human gut metagenome, 24 h, 2 µM. This is another data set of the same source.
Data set [6] is described as follows: The drug is tested on WLS-052 corresponding to human gut metagenome with ENA study accession number: PRJEB37062 and ENA sample accession number: ERS12561747 for biotransformation under anaerobic condition. The drug concentrations were measured over 9 timepoints collected between 0 and 24 hours of incubation by liquid-chromatography-coupled mass spectrometry (LC–MS). The following applies: 2 µM.

Data set [7] in a line: The drug is tested on WLS-073 corresponding to human gut metagenome with ENA study accession number: PRJEB37062 and ENA sample accession number: ERS12561749 for biotransformation under anaerobic condition. The drug concentrations were measured over 9 timepoints collected between 0 and 24 hours of incubation by liquid-chromatography-coupled mass spectrometry (LC–MS). The following applies: 2 µM.

For data set [8] the following is noted: human gut metagenome, 24 h, 2 µM. This is another data set of the same source.
A short description of data set [9]: The drug is tested on WLS-098 corresponding to human gut metagenome with ENA study accession number: PRJEB37062 and ENA sample accession number: ERS12561754 for biotransformation under anaerobic condition. The drug concentrations were measured over 9 timepoints collected between 0 and 24 hours of incubation by liquid-chromatography-coupled mass spectrometry (LC–MS). The following applies: 2 µM.

The conditions of data set [10]: human gut metagenome, 24 h, 2 µM. This is another data set of the same source.
Data set [11] can be described thus: The drug is tested on WLS-090 corresponding to human gut metagenome with ENA study accession number: PRJEB37062 and ENA sample accession number: ERS12561753 for biotransformation under anaerobic condition. The drug concentrations were measured over 9 timepoints collected between 0 and 24 hours of incubation by liquid-chromatography-coupled mass spectrometry (LC–MS). The following applies: 2 µM.

The nature of data set [12]: The drug is tested on Z-001 corresponding to mouse gut metagenome with ENA study accession number: PRJEB37062 and ENA sample accession number: ERS12561801 for biotransformation under anaerobic condition. The drug concentrations were measured over 9 timepoints collected between 0 and 24 hours of incubation by liquid-chromatography-coupled mass spectrometry (LC–MS). The following applies: 2 µM.

The conditions of data set [13]: human gut metagenome, 24 h, 2 µM. The source holds these as a separate data set.
Data set [14] can be described thus: The drug is tested on Z-011 corresponding to mouse gut metagenome with ENA study accession number: PRJEB37062 and ENA sample accession number: ERS12561811 for biotransformation under anaerobic condition. The drug concentrations were measured over 9 timepoints collected between 0 and 24 hours of incubation by liquid-chromatography-coupled mass spectrometry (LC–MS). The following applies: 2 µM.

The nature of data set [15]: The drug is tested on Z-020 corresponding to rabbit gut metagenome with ENA study accession number: PRJEB37062 and ENA sample accession number: ERS12561819 for biotransformation under anaerobic condition. The drug concentrations were measured over 9 timepoints collected between 0 and 24 hours of incubation by liquid-chromatography-coupled mass spectrometry (LC–MS). The note with it: 2 µM.

A short description of data set [16]: The drug is tested on Z-023 corresponding to metagenome with ENA study accession number: PRJEB37062 and ENA sample accession number: ERS12561822 for biotransformation under anaerobic condition. The drug concentrations were measured over 9 timepoints collected between 0 and 24 hours of incubation by liquid-chromatography-coupled mass spectrometry (LC–MS). The note with it: 2 µM.

The conditions of data set [17]: human gut metagenome, 24 h, 2 µM. The source holds these as a separate data set.
The nature of data set [18]: The drug is tested on WLS-027 corresponding to human gut metagenome with ENA study accession number: PRJEB37062 and ENA sample accession number: ERS12561744 for biotransformation under anaerobic condition. The drug concentrations were measured over 9 timepoints collected between 0 and 24 hours of incubation by liquid-chromatography-coupled mass spectrometry (LC–MS). The note with it: 2 µM.

Data set [19] can be described thus: The drug is tested on WLS-007 corresponding to human gut metagenome with ENA study accession number: PRJEB37062 and ENA sample accession number: ERS12561742 for biotransformation under anaerobic condition. The drug concentrations were measured over 9 timepoints collected between 0 and 24 hours of incubation by liquid-chromatography-coupled mass spectrometry (LC–MS). The following applies: 2 µM.

For data set [20] the following is noted: human gut metagenome, 24 h, 2 µM. This is another data set of the same source.
Further: call rule not given here.

As to `CN1C(C(=O)Nc2ccccn2)=C(O)c2sccc2S1(=O)=O` [TENOXICAM], the “Bacterial Biotransformation” value in [1], in data set [2], in data set [3], in [4], in data set [5] and in [6] was “Compound NOT metabolized” in each case. In addition, the “Bacterial Biotransformation” value in data set [7], in data set [8], in data set [9], in data set [10], in [11] and in data set [12] was “Compound NOT metabolized” throughout. The “Bacterial Biotransformation” value is “Compound NOT metabolized” in [13]; “Compound NOT metabolized” in [14]; “Compound NOT metabolized” in data set [15]; “Compound metabolized” in data set [16]; “Compound NOT metabolized” in data set [17]; “Compound NOT metabolized” in [18]. In addition, the “Bacterial Biotransformation” value in data set [19] and in data set [20] was “Compound NOT metabolized” throughout.

Regarding `O=c1n(CCCN2CCN(c3cccc(Cl)c3)CC2)nc2ccccn12` [TRAZODONE], the “Bacterial Biotransformation” value in [1] is on record as “Compound NOT metabolized”; in [2] it was “Compound metabolized”; in [3], “Compound NOT metabolized”; in [4], “Compound NOT metabolized”; in [5] it was “Compound NOT metabolized”; in [6], “Compound NOT metabolized”. The “Bacterial Biotransformation” value in data set [7] is recorded as “Compound metabolized”; in [8], “Compound metabolized”; in [9], “Compound metabolized”; in data set [10] it was “Compound NOT metabolized”; in data set [11], “Compound metabolized”; in data set [12], “Compound NOT metabolized”. The “Bacterial Biotransformation” value in [13] is on record as “Compound metabolized”; in [14] it was “Compound NOT metabolized”; in [15], “Compound NOT metabolized”; in data set [16], “Compound NOT metabolized”; in data set [17], “Compound metabolized”; in data set [18], “Compound metabolized”. Further, the “Bacterial Biotransformation” value in data set [19] and in data set [20] was “Compound metabolized” each time.

Regarding `OC(CCN1CCCCC1)(c1ccccc1)C1CCCCC1` (stereo not given) [TRIHEXYPHENIDYL], the “Bacterial Biotransformation” value is on record as “Compound NOT metabolized” in data set [1]; “Compound metabolized” in [2]; “Compound NOT metabolized” in [3]; “Compound metabolized” in [4]; “Compound metabolized” in [5]; “Compound NOT metabolized” in [6]. The “Bacterial Biotransformation” value in data set [7], in [8], in data set [9], in [10], in [11] and in [12] was “Compound metabolized” throughout. The “Bacterial Biotransformation” value in data set [13] is reported as “Compound metabolized”; in [14] it was “Compound NOT metabolized”; in data set [15], “Compound metabolized”; in [16] it was “Compound metabolized”; in data set [17], “Compound metabolized”; in [18] it was “Compound NOT metabolized”. Further, the “Bacterial Biotransformation” value in [19] and in data set [20] was “Compound metabolized” throughout.

For `Cc1cn([C@H]2C[C@H](N=[N+]=[N-])[C@@H](CO)O2)c(=O)[nH]c1=O` [ZIDOVUDINE], the “Bacterial Biotransformation” value is recorded as “Compound metabolized” in [1]; “Compound NOT metabolized” in data set [2]; “Compound metabolized” in data set [3]; “Compound NOT metabolized” in data set [4]; “Compound NOT metabolized” in data set [5]; “Compound NOT metabolized” in data set [6]. Besides, the “Bacterial Biotransformation” value in data set [7] is listed as “Compound NOT metabolized”; in [8], “Compound NOT metabolized”; in [9], “Compound NOT metabolized”; in data set [10] it was “Compound NOT metabolized”; in [11], “Compound NOT metabolized”; in data set [12], “Compound metabolized”. Besides, the “Bacterial Biotransformation” value in [13] is given as “Compound NOT metabolized”; in data set [14], “Compound metabolized”; in data set [15] it was “Compound metabolized”; in data set [16] it was “Compound NOT metabolized”; in [17], “Compound NOT metabolized”; in data set [18], “Compound NOT metabolized”. For the same compound, the “Bacterial Biotransformation” value in [19] and in [20] was “Compound NOT metabolized” throughout.

These data come from ChEMBL document CHEMBL5724914, “Linking interpersonal differences in gut microbiota composition and drug biotransformation activity” (2024).
